We go through one molecule from patent US12171833B2, “Mucoadhesive polymeric drug delivery compositions and methods” (The University of British Columbia, priority 2020, dated 2024).

The conditions of data set [1]: 30 min IV infusion, cited from earlier work.
A short description of data set [2]: In vitro drug release from formulation A (dialysis mini chamber, PBS, 37° C.). The data set is classed as physicochemical. To be noted: 100 mg, PBS pH 7.4, 37° C., up to 30 hours. On the procedure:
Formulation A of PLGA 5%, HA 3%, PEG 92% was made up as described in TABLE 8. […] For the protein study the mini chamber was not closed but a small retaining sponge applied. The chamber was placed in 5 mL of PBS (pH 7.4 or PBS containing albumin to increase the solubility of docetaxel) and placed in an incubator at 37° C.

For the molecule `Nc1ccn([C@@H]2O[C@H](CO)[C@@H](O)C2(F)F)c(=O)n1` [gemcitabine], the AUC0-inf in data set [1] (1250 mg/m^2 (32.1 mg/kg), literature) is 12500 ng·h/mL. Moreover, in data set [1] (1250 mg/m^2, literature), the kel is 3.18 h⁻¹ and the “t1/2 (terminal)” value is 13.8 min. Besides, the “drug release from paste” value in data set [2] is on record as “faster than the other two agents”.
